The values that follow come from patent US20110059967A1, “THERAPEUTIC COMPOUNDS” (Allergan Inc., priority 2008, published 2011).

The assay deals with lashes and adjacent hairs. The experiment in a line: Observation of lashes and adjacent hairs in glaucoma patients treated with bimatoprost in only one eye. Type of assay: in vivo. The settings on record: glaucoma patients taking bimatoprost in only one eye. The source says: In the course of treating patients having glaucoma, treatment may only be appropriate in one eye. […] The lash appearance on the lids of the treated eyes would have appeared quite attractive if it represented a bilateral phenomenon. As a result of its asymmetric nature, the long lash'es on one side could be construed as disturbing from a cosmetic standpoint. A systemic examination was preformed as a result of the asymmetric phenomenon. It soon became apparent that this altered appearance was not an isolated finding. […] Definite differences could be identified to varying degrees in the lashes and adjacent hairs of all patients who were taking the drug on a unilateral basis for longer than 6 months.
The changes in the lashes were apparent on gross inspection in several patients once attention was focused on the issue. In those with light colored hair and lashes, the differences were only seen easily with the aid of the high magnification and lighting capabilities of the slit lamp biomicroscope. In the course of glaucoma follow-up examination, attention is generally immediately focused on the eye itself. As a result of the high power magnification needed only one eye is seen at a time and the eye is seen at a high enough power that the lashes are not in focus. […]

“Also recorded” adds a separate entry of the source.

Consider `CCNC(=O)CCC/C=C\C[C@@H]1[C@@H](/C=C/[C@@H](O)CCc2ccccc2)[C@H](O)C[C@@H]1O` [bimatoprost], for which the “hair growth: lashes of the treated eye compared with the non-treated eye” value was “longer, thicker, and fuller; also recorded: hair growth is stimulated”.
